Values of other authors, collected in US20160184212A1, “PHOTO-ACTIVATED HYDROGELS” (L'Oreal, priority 2014, published 2016).

water solubility: water soluble
SMILES: O=C1c2ccccc2C(=O)c2cc(S(=O)(=O)[O-])ccc21.[Na+] [anthraquinone-2-sulfonic acid sodium salt]
